{"source": "patent US11925678B2", "about": "“Methods for diagnosing and treating Alzheimer's disease” (Cava Healthcare Inc., priority 2011, dated 2024)", "key": {"animal models of AD": {"test_system": "animal models of AD", "conditions": "cited from earlier work"}, "endothelial cells": {"test_system": "endothelial cells", "conditions": "cited from earlier work"}, "Tg2576 mice [1]": {"test_system": "Tg2576 mice", "assay": "Apoptosis by activated caspase-3 staining in immunized mice", "assay_type": "in vivo, mouse", "description": "(§1) Injections were performed i.p.\nAn anti-activated caspase-3 antibody was used as a marker of apoptosis FIG. 9. […] PBS immunized Tg2576 mice, both preventative and therapeutic, had significant activated caspase-3 staining within the FIG. 9a cortex and hippocampus (not shown) that tended to surround probable abeta plaques. […] The overall density of activated caspase-3 staining in these mice was noted to be lower than the Tg2576 treated with abeta. […] Cortex activated caspase-3 staining appear similar in the abeta immunized Tg2576 to the wild-type variants."}, "[2]": {"test_system": "Tg2576 (Tg/+) and wild-type (+/+) mice", "conditions": "for tight junction abnormalities compared to PBS immunized controls (qualitative) / TJ expression in microvessels/capillaries (qualitative) / incidence of TJ disruption (percentage of blood vessels with abnormal TJ morphology) / TJ expression in larger vessels (qualitative): Tg2576 mice; for tight junction abnormalities compared to PBS immunized controls (qualitative): cortex and hippocampus; for TJ expression in microvessels/capillaries (qualitative): preventative and therapeutic immunization; for incidence of TJ disruption (percentage of blood vessels with abnormal TJ morphology): mean±SEM; for TJ expression in larger vessels (qualitative): preventative or therapeutic immunization", "protocol": "(§2) Briefly, two separate vaccination strategies were carried out, therapeutic and preventative. Prior to immunization, mice were bled from the saphenous vein and serum collected. In the preventative approach, mice were vaccinated beginning at 6 weeks of age and sacrificed at 12 months. Mice used in the therapeutic strategy were vaccinated beginning at 11 months of age and sacrificed at 15 months. Abeta peptide was freshly prepared from lyophilized powder for each set of injections. For immunizations, 2 mg of abeta (human abeta1-40, Bachem) was added to 0.9 mL of deionized water and thoroughly mixed. Then 100 μL of 10×PBS was added to obtain a final 1×PBS concentration. The solution was vortexed and placed at 37° C. overnight until use the next day. Abeta1-40 (100 μg antigen per injection) or PBS (control) was mixed 1:1 (v/v) with complete Freund's adjuvant (CFA) for the first immunization. This was followed by a boost with abeta1-40 (100 μg) or PBS mixed 1:1 (v/v) with incomplete Freund's adjuvant (ICFA) at two weeks and monthly thereafter. From the fifth immunization onward, straight PBS or abeta were injected. Injections were performed i.p.\nDewaxed paraffin sections underwent antigen retrieval using a conventional stovetop pressure cooker using 20 mM Tris with 0.7 mM EDTA buffer (pH 9.0) at full steam for 2 minutes. Cooled slides were then incubated in blocking buffer (25% normal goat serum; 3% BSA; 0.3% Triton X-100, Sigma) for 1 hour at room temperature. Primary antibodies used included rabbit anti-ZO-1 (1:200, Invitrogen), mouse anti-ZO-1 (1:200, Invitrogen), rabbit anti-occludin (1:200, Invitrogen), rabbit anti-activated caspase-3 (1:1000, Imgenex), and mouse anti-human CD105 (1:20, DAKO). Primary antibody staining was performed overnight at 4C in staining buffer (10% normal goat serum; 3% BSA; 0.3% Triton X-100). Normal donkey serum was used when staining with goat primary antibodies. Secondary antibodies used were complimentary to the species of the primary conjugated with either Alexa Fluor dyes 488 or 568 (1:500, Invitrogen). Secondary antibody staining was performed at room temperature for 1 hour in staining buffer. TOTO-3 (1:10000, Invitrogen) was used for nuclear counterstaining. Sections were washed in PBS with 0.1% Tween-20 (Sigma) three times for 5 minutes each between staining steps. Stained sections were coverslipped using Fluoromount-G (Southern Biotech) and allowed to air dry in the dark overnight.\nBrain sections were analyzed from paraffin blocks from every fifth section. Images taken on a Zeiss LSM510 Meta (Zeiss, Germany), were acquired with 16 slices, averaged four times, through the Z-plane using a 40×/1.3 oil-immersion Plan-Neofluor objective. The composite projected image was imported into Adobe Photoshop, at 600 dpi, and optimized for contrast and brightness. Quantitative analysis of tight junction morphology was analyzed according the methodology developed by Plumb et al. (Brain Pathol 12, 154-169). Confocal data sets represented approximately 100 cerebral blood vessels from both young and aged Tg2576 and littermate controls in the frontal cortex and hippocampus. Individual vessels were scored as either normal (1) or abnormal (0) for ZO-1 expression. Normal ZO-1 expression was judged as strong, continuous, intense and linear staining. In contrast, abnormal ZO-1 expression was judged as weak, punctate and/or discontinuous staining. […] To minimize the recording of incomplete or undulating vessels as abnormal, due to observed “gaps” in ZO-1 staining, evidence of vessel continuity was sought in the images. For example, the presence of stained nuclei (with TOTO-3) or punctate or diffuse ZO-1 remnants was used to localize the position of abnormal gaps along the vessel tract."}, "Tg2576 (Tg/+) mice": {"test_system": "Tg2576 (Tg/+) mice", "assay": "Microvessel density (MVD) by CD105 staining in immunized mice", "assay_type": "in vivo, mouse", "conditions": "for microvessel density (MVD), ratio of TFA to total area of imaged field: CD105 staining, mean±SEM", "description": "as §1\nMicrovessel density (MVD) was quantified by confocal microscopy using the methods developed by Guo et al. (Angiogenesis 4, 187-191 with minor modifications). Using CD105 as a marker of angiogenic cerebrovasculature (Masliah et al. (2005) Neurology 64, 129-131), images of optimal fluorescent intensity were acquired and analyzed using the Zeiss LSM510 Meta software. Areas within the brain section containing high density (“hotspots”) (Bombois et al. (2007) Arch Neurol 64, 583-587) CD105 staining were imaged using the 20×/0.45 N-Achroplan objective using the confocal imaging parameters mentioned previously. The total fluorescence area (TFA) in μm^2 was integrated above background, by the software, for each hotspot. The average TFA from four different hotspots per mouse was quantified. The TFA was used as a numerical representation of the total microvessels stained by the CD105 antibody. The MVD of the imaged field was expressed as a ratio of the TFA to the total area of the image.\nMicrovessel density quantification: Microvessel density was quantified by confocal microscopy using the methods described previously Biron et al., PLoS ONE 6, e23789 (2011)). Using CD105 as a marker of angiogenic cerebrovasculature (Holley et al. Neurosci Lett 470, 65-70 (2010)), images of optimal fluorescent intensity were acquired and analyzed using the Zeiss LSM510 Meta software. Areas within the brain section containing high density (“hotspots”) CD105 staining were imaged using the 20×/0.45 N-Achroplan objective using the confocal imaging parameters mentioned previously. The total fluorescence area (TFA) in μm^2 was integrated above background, by the software, for each hotspot. The average TFA from four different hotspots per mouse was quantified. The TFA was used as a numerical representation of the total microvessels stained by the CD105 antibody. The microvascular density of the imaged field was expressed as a ratio of the TFA to the total area of the image."}, "[3]": {"conditions": "mouse, in vivo", "protocol": "Mice were terminally anesthetized with ketamine/xylazine (100 mg/kg; 10 mg/kg) and perfused with PBS for 5 minutes. Brains were then rapidly excised, olfactory bulbs and cerebellum removed, weighed and post-fixed in 4% paraformaldehyde for four days at 4° C. The brains were then imbedded in paraffin and sectioned serially at 5 μm. […] Average brain weights were compared amongst the immunized mice by comparing brain to body mass ratios."}, "Tg2576 mice [4]": {"test_system": "Tg2576 mice", "conditions": "cited from earlier work"}, "[5]": {"test_system": "Tg2576 and wild-type mice", "protocol": "as §2\nTg2576 and wild-type mice immunized, preventatively or therapeutically, with either abeta or PBS were assessed for cerebrovascular leakage and TJ abnormalities by confocal microscopy. Mouse albumin was used as a marker for vascular leakage and was visualized as diffuse gradient staining emanating away from vessels FIG. 8b (white arrowhead)."}, "Tg2576 mice [6]": {"test_system": "Tg2576 mice", "protocol": "Briefly, two separate vaccination strategies were carried out, therapeutic and preventative. […] In the preventative approach, mice were vaccinated beginning at 6 weeks of age and sacrificed at 12 months. Mice used in the therapeutic strategy were vaccinated beginning at 11 months of age and sacrificed at 15 months. Abeta peptide was freshly prepared from lyophilized powder for each set of injections. For immunizations, 2 mg of abeta (human abeta1-40, Bachem) was added to 0.9 mL of deionized water and thoroughly mixed. Then 100 μL of 10×PBS was added to obtain a final 1×PBS concentration. The solution was vortexed and placed at 37° C. overnight until use the next day. Abeta1-40 (100 μg antigen per injection) or PBS (control) was mixed 1:1 (v/v) with complete Freund's adjuvant (CFA) for the first immunization. This was followed by a boost with abeta1-40 (100 μg) or PBS mixed 1:1 (v/v) with incomplete Freund's adjuvant (ICFA) at two weeks and monthly thereafter. From the fifth immunization onward, straight PBS or abeta were injected. Injections were performed i.p.\nAβ was imaged with a Zeiss LSM 710 Laser Scanning."}, "[7]": {"conditions": "Tg2576 mice, preventative and therapeutic"}}, "note": "Read-outs that look alike come from different tables or passages of the source.", "data": [{"compound": "C=C(c1ccc(C(=O)O)cc1)c1cc2c(cc1C)C(C)(C)CCC2(C)C", "note": "[bexarotene]", "values": [{"measurement": "memory performance", "setting": "animal models of AD", "result": "increase memory performance"}, {"measurement": "plaque burden", "setting": "animal models of AD", "result": "reduce plaque burden"}, {"measurement": "angiogenesis (proliferation, adhesion, invasion and migration of endothelial cells)", "setting": "endothelial cells", "result": "inhibits angiogenesis"}]}, {"compound": "human abeta1-40", "values": [{"measurement": "distribution of activated caspase-3 staining", "setting": "Tg2576 mice [1]; Tg2576 mice", "result": "hippocampal restricted caspase-3 staining"}, {"measurement": "activated caspase-3 staining (qualitative, overall)", "setting": "Tg2576 mice [1]; Tg2576 mice (FIG. 9)", "result": "reduced activated caspase-3 staining"}, {"measurement": "activated caspase-3 staining in cortex", "setting": "Tg2576 mice [1]; [7]", "result": "limited caspase-3 staining"}, {"measurement": "percentage of abnormal vascular TJ expression", "setting": "[2]; Example 3, Tg/+ mice immunized preventatively from 6 weeks of age, neocortex and hippocampus", "result": "~10", "unit": "%"}, {"measurement": "percentage of abnormal vascular TJ expression (TJ pathology)", "setting": "[2]; Example 3, Tg/+ mice immunized therapeutically at 11 months of age, neocortex and hippocampus", "result": "~10", "unit": "%"}, {"measurement": "tight junction abnormalities compared to PBS immunized controls (qualitative)", "setting": "[2]", "result": "reduced tight junction abnormalities"}, {"measurement": "tight junction abnormalities compared to PBS immunized controls (qualitative)", "setting": "[2]; listed as Abeta", "result": "markedly reduced TJ pathology"}, {"measurement": "tight junction abnormalities compared to PBS immunized controls (qualitative)", "setting": "[2]; listed as Aβ", "result": "reduced tight junction abnormalities"}, {"measurement": "TJ expression in microvessels/capillaries (qualitative)", "setting": "[2]", "result": "normal TJs"}, {"measurement": "TJ expression in microvessels/capillaries (qualitative)", "setting": "[2]; listed as Aβ", "result": "normal ZO-1 expression in the capillaries"}, {"measurement": "incidence of TJ disruption (percentage of blood vessels with abnormal TJ morphology)", "setting": "[2]; preventative immunization (6 weeks to 12 months), cortex", "result": "11.33±2.40", "unit": "%"}, {"measurement": "incidence of TJ disruption (percentage of blood vessels with abnormal TJ morphology)", "setting": "[2]; preventative immunization, hippocampus", "result": "11.91±1.73", "unit": "%"}, {"measurement": "TJ expression in larger vessels (qualitative)", "setting": "[2]", "result": "larger proportion of abnormal TJ expression"}, {"measurement": "TJ expression in larger vessels (qualitative)", "setting": "[2]; listed as Aβ", "result": "some abnormal TJ pathology mainly in larger vessels"}, {"measurement": "incidence of TJ disruption (percentage of blood vessels with abnormal TJ morphology)", "setting": "[2]; therapeutic immunization (11 to 15 months), cortex", "result": "10.40±0.81", "unit": "%"}, {"measurement": "incidence of TJ disruption (percentage of blood vessels with abnormal TJ morphology)", "setting": "[2]; therapeutic immunization, hippocampus", "result": "11.00±2.26", "unit": "%"}, {"measurement": "microvessel density (MVD), ratio of TFA to total area of imaged field", "setting": "Tg2576 (Tg/+) mice; Tg2576 mice immunized preventatively", "result": "0.1972±0.0075"}, {"measurement": "microvessel density (MVD), ratio of TFA to total area of imaged field", "setting": "Tg2576 (Tg/+) mice; Tg2576 mice immunized therapeutically (after disease onset)", "result": "0.2180±0.0130"}, {"measurement": "microvascular density compared to PBS controls (qualitative)", "setting": "Tg2576 (Tg/+) mice; [7]", "result": "reduced microvascular density"}, {"measurement": "average brain to body weight ratio (difference between groups)", "setting": "[3]", "result": "did not reach significance"}, {"measurement": "plaque burdens and microgliosis", "setting": "Tg2576 mice [4]; Tg2576 mice", "result": "significantly reduced"}, {"measurement": "immune response: anti-abeta antibody titres", "setting": "Tg2576 mice [4]; mice immunized preventatively or therapeutically", "result": "increase in anti-abeta antibody titres"}, {"measurement": "global integrity of the BBB", "setting": "Tg2576 mice [4]; post-abeta immunized Tg2576 mice", "result": "improves significantly"}, {"measurement": "overall vascular leakage (qualitative)", "setting": "[5]; Tg2576 mice, preventatively immunized (FIG. 8)", "result": "overall reduced vascular leakage"}, {"measurement": "vascular leakage in larger vessels (mouse albumin)", "setting": "[5]; mouse, in vivo", "result": "periodic vascular leakage"}, {"measurement": "vascular leakage in wild-type mice", "setting": "[5]; mouse, in vivo", "result": "no vascular leakage"}, {"measurement": "abeta deposition in cerebral capillaries", "setting": "Tg2576 mice [6]; Tg2576 mice", "result": "No abeta deposition"}, {"measurement": "parenchymal Aβ plaques", "setting": "Tg2576 mice [6]; Tg/+ mice preventatively immunized", "result": "complete elimination"}, {"measurement": "Aβ plaque pathology", "setting": "Tg2576 mice [6]; Tg/+ mice therapeutically treated", "result": "dramatic decrease"}, {"measurement": "Aβ deposits compared to Tg/+, PBS (qualitative)", "setting": "Tg2576 mice [6]; Tg/+ mice, therapeutic or preventative (FIG. 14)", "result": "general reduction of Aβ deposits"}, {"measurement": "vascular abeta deposition in larger vessels", "setting": "Tg2576 mice [6]; mouse, in vivo", "result": "Mild vascular abeta deposition"}]}]}
